Among the data in patent publication US4213999A, “Inhibition of lipogenesis” (Shell Oil Company, priority 1979, dated 1980) are inhibition values, retold here.

SMILES strings stand for the structures.

The test has as its system lipogenesis in swine adipose tissue. The experiment in a line: Inhibition of lipogenesis (lipid synthesis from glucose-U^14 C) in swine adipose tissue slices. As to conditions: Sus scrofa, 100 micrograms per milliliter of incubation mixture, 37° C., 2 hours, 300 microunits of insulin, 5% DMSO, triplicate, read-out: Percent Inhibition of lipogenesis (lipid synthesis) compared to control tests. The format is cell-based. The source says: The manner in which they cause this effect is not known with certainty; it is believed that they interfere with the synthesis of fatty acids in the tissues. Their effectiveness for this purpose has been ascertained by immersing samples of swine adipose tissue in a liquid medium containing radioactive glucose and the test chemical for a period of time, then isolating the lipid from the treated tissue and determining the uptake of the radioactive carbon by means of scintillation counting techniques. These tests were conducted in swine adipose tissue because in swine, the primary site of lipogenesis--i.e., fatty acid synthesis--appears to be adipose tissue.
Described in more detail, the tests were conducted according to the following general procedure:
150 milligrams of slices of swine adipose tissue were incubated at 37° C. for 2 hours with shaking in 3 milliliters of Krebs-Ringer bicarbonate solution containing one-half of the normal calcium ion concentration, 60 micromoles of glucose, 0.5 micro-Curie of glucose-U^14 C, and 300 microunits of insulin, and 5% dimethyl sulfoxide (DMSO). The test compound was added as a solution or suspension in DMSO and was present as a concentration of 100 micrograms per milliliter of incubation mixture.
The incubation was terminated by addition of 0.25 milliliter of 1 N sulfuric acid. The resulting mixture was extracted with a total of 25 milliliters of chloroform:methanol (2:1, v/v). The extracts were washed according to Folch et al. (J. Biol. Chem., 226, 497-509, (1957)), air dried, and counted in a liquid scintillation counter with 15 milliliters of counting fluid (two parts toluene containing 0.4% w/v New England Nuclear Omnifluor: 1 part Triton X-100). The tests were conducted in triplicate and were accompanied by control tests in which all ingredients,proportions and conditions were the same except that no test compound was included. From the data obtained were calculated the percent inhibition of lipid synthesis by the test compound. The data obtained are reported as the percent inhibition of lipogenesis compared to the results obtained in the control tests wherein only the test compound was omitted.

As to `CCOC(=O)c1cc2cc(Cc3ccccc3)ccc2o1` [Compound 1, Ethyl 5-benzylbenzofuran-2-carboxylate], the inhibition at 100 µg/mL was determined as 45%.

On to `CCCCCCOc1ccc2oc(C(=O)OCC)cc2c1` [Compound 2], for which the inhibition at 100 µg/mL was found to be 23%. As for `CCOC(=O)c1cc2cc(C(=O)c3ccccc3)ccc2o1` [Compound 3], the inhibition at 100 µg/mL was determined as 47%. For the compound `CCOC(=O)c1cc2c(Oc3ccccc3)cccc2o1` [Compound 4, Ethyl 4-phenoxybenzofuran-2-carboxylate], the inhibition at 100 µg/mL was 28%. In the case of `CCOC(=O)c1cc2cc(-c3ccc(C(C)=O)cc3)ccc2o1` [Compound 5, Ethyl 5-(4-acetylphenyl)benzofuran-2-carboxylate], the inhibition at 100 µg/mL was found to be 24%. As for `CCOC(=O)c1cc2cc(-c3ccc(OC(C)=O)cc3)ccc2o1` [Compound 6, Ethyl 5-(4-acetyloxyphenyl)benzofuran-2-carboxylate], the inhibition at 100 µg/mL was found to be 56%. `CCOC(=O)c1cc2cc(-c3ccc(C(C)O)cc3)ccc2o1` (stereo not drawn) [Compound 7, Ethyl 5-(4-(1-hydroxyethyl)phenyl)benzofuran-2-carboxylate]: the inhibition at 100 µg/mL amounted to 71%.

For `CCOC(=O)c1cc2cc(-c3ccc(NC(C)=O)cc3)ccc2o1` [Compound 8], the inhibition at 100 µg/mL was found to be 52%. In the case of `CCOC(=O)c1cc2cc(-c3ccc(N)cc3)ccc2o1` [Compound 9, Ethyl 5-(4-aminophenyl)benzofuran-2-carboxylate] it was 45%; in that of `CCOC(=O)C1Cc2cc(-c3ccccc3)ccc2O1` (stereo not drawn) [Compound 10, Ethyl 2,3-dihydro-5-phenylbenzofuran-2-carboxylate], 21%. For the compound `CCOC(=O)C1Cc2cc(Cc3ccccc3)ccc2O1` (stereo not drawn) [Compound 11], the inhibition at 100 µg/mL came to 40%. On to `C=CCOC(=O)C1Cc2cc(Cc3ccccc3)ccc2O1` (stereo not drawn) [Compound 12], for which the inhibition at 100 µg/mL came out at 36%.

With `CCOC(=O)C1Cc2c(Oc3ccccc3)cccc2O1` (stereo not drawn) [Compound 13], the inhibition at 100 µg/mL is 20%. For the compound `COC(=O)C1Cc2cc(-c3ccc(C(C)O)cc3)ccc2O1` (stereo not drawn) [Compound 14], the inhibition at 100 µg/mL is 85%. Take `CCOC(=O)C1Cc2cc(-c3ccc(NC(C)=O)cc3)ccc2O1` (stereo not drawn) [Compound 15]: the inhibition at 100 µg/mL worked out at 88%. In the case of `CCOC(=O)C1Cc2cc(C3CCCCC3)ccc2O1` (stereo not drawn) [Compound 16], the inhibition at 100 µg/mL turned out to be 21%. For `CCOC(=O)C1Cc2ccc(Oc3ccccc3)cc2O1` (stereo not drawn) [Compound 17], the inhibition at 100 µg/mL amounted to 29%.

In the case of `CCOC(=O)C1Cc2cc(-c3ccc(Cl)cc3)ccc2O1` (stereo not drawn) [Compound 18, Ethyl 2,3-dihydro-5-(4-chlorophenyl)benzofuran-2-carboxylate], the inhibition at 100 µg/mL was determined as 28%.
